Biological target: mGluR2 (Mus musculus, UniProt Q14BI2, A548F)
Experiment: Single-molecule FRET (SiMPull) of azi-CRD: population histograms and state occupancy;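 note: Cy3/Cy5-labelled receptor from HEK293T cell lysate captured on anti-FLAG surfaces, apparent FRET efficiency computed from donor and acceptor intensities with crosstalk correction, pooled into population histograms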
Conditions: for smFRET Histogram, Mean: N 3; for Mean occupancy, state 1 (inactive, FRET 0.24) / Mean occupancy, state 2 (intermediate 1, FRET 0.38) / Mean occupancy, state 3 (intermediate 2, FRET 0.70) / Mean occupancy, state 4 (active, FRET 0.87): azi-CRD, 5 μM modulator, fraction of total area

mGluR2, sequence (Q14BI2 19-872 A548F): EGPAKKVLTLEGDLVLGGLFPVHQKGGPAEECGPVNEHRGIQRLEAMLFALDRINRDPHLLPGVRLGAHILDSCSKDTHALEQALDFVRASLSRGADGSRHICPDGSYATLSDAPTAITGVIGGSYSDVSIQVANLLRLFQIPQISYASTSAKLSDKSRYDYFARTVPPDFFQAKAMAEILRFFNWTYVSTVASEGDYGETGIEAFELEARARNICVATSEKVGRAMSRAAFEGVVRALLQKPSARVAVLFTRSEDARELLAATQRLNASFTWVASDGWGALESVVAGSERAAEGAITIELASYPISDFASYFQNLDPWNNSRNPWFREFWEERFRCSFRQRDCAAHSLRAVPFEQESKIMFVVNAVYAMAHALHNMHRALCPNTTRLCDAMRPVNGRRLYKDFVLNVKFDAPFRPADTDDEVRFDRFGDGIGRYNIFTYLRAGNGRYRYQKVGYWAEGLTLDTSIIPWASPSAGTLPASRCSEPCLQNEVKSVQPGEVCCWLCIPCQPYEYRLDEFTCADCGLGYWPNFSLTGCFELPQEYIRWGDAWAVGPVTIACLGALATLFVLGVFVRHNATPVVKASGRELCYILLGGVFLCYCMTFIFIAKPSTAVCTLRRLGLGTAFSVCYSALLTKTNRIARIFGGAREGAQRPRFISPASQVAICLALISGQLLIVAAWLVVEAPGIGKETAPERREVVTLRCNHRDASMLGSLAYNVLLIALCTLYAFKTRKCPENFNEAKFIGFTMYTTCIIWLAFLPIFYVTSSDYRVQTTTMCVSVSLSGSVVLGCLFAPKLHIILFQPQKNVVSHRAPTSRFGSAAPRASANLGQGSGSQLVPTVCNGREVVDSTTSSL

smFRET Histogram, Mean (FRET 0.1, 0μM Glutamate + GPT/Pyruvate + 5μM MNI-137): 0.01404
smFRET Histogram, Mean (FRET 0.1, 15μM Glutamate + 5μM MNI-137): 0.0021
smFRET Histogram, Mean (FRET 0.12, 0μM Glutamate + GPT/Pyruvate + 5μM MNI-137): 0.02347
smFRET Histogram, Mean (FRET 0.12, 15μM Glutamate + 5μM MNI-137): 0.00321
smFRET Histogram, Mean (FRET 0.14, 0μM Glutamate + GPT/Pyruvate + 5μM MNI-137): 0.03681
smFRET Histogram, Mean (FRET 0.14, 15μM Glutamate + 5μM MNI-137): 0.00506
smFRET Histogram, Mean (FRET 0.16, 0μM Glutamate + GPT/Pyruvate + 5μM MNI-137): 0.05131
smFRET Histogram, Mean (FRET 0.16, 15μM Glutamate + 5μM MNI-137): 0.00784
smFRET Histogram, Mean (FRET 0.18, 0μM Glutamate + GPT/Pyruvate + 5μM MNI-137): 0.06643
smFRET Histogram, Mean (FRET 0.18, 15μM Glutamate + 5μM MNI-137): 0.01263
smFRET Histogram, Mean (FRET 0.2, 0μM Glutamate + GPT/Pyruvate + 5μM MNI-137): 0.07988
smFRET Histogram, Mean (FRET 0.2, 15μM Glutamate + 5μM MNI-137): 0.01781
smFRET Histogram, Mean (FRET 0.22, 0μM Glutamate + GPT/Pyruvate + 5μM MNI-137): 0.08842
smFRET Histogram, Mean (FRET 0.22, 15μM Glutamate + 5μM MNI-137): 0.02498
smFRET Histogram, Mean (FRET 0.24, 0μM Glutamate + GPT/Pyruvate + 5μM MNI-137): 0.08863
smFRET Histogram, Mean (FRET 0.24, 15μM Glutamate + 5μM MNI-137): 0.03347
smFRET Histogram, Mean (FRET 0.26, 0μM Glutamate + GPT/Pyruvate + 5μM MNI-137): 0.08743
smFRET Histogram, Mean (FRET 0.26, 15μM Glutamate + 5μM MNI-137): 0.04243
smFRET Histogram, Mean (FRET 0.28, 0μM Glutamate + GPT/Pyruvate + 5μM MNI-137): 0.07891
smFRET Histogram, Mean (FRET 0.28, 15μM Glutamate + 5μM MNI-137): 0.05374
smFRET Histogram, Mean (FRET 0.3, 0μM Glutamate + GPT/Pyruvate + 5μM MNI-137): 0.06941
smFRET Histogram, Mean (FRET 0.3, 15μM Glutamate + 5μM MNI-137): 0.06299
smFRET Histogram, Mean (FRET 0.32, 0μM Glutamate + GPT/Pyruvate + 5μM MNI-137): 0.05758
smFRET Histogram, Mean (FRET 0.32, 15μM Glutamate + 5μM MNI-137): 0.07069
smFRET Histogram, Mean (FRET 0.34, 0μM Glutamate + GPT/Pyruvate + 5μM MNI-137): 0.04784
smFRET Histogram, Mean (FRET 0.34, 15μM Glutamate + 5μM MNI-137): 0.0754
smFRET Histogram, Mean (FRET 0.36, 0μM Glutamate + GPT/Pyruvate + 5μM MNI-137): 0.03831
smFRET Histogram, Mean (FRET 0.36, 15μM Glutamate + 5μM MNI-137): 0.07714
smFRET Histogram, Mean (FRET 0.38, 0μM Glutamate + GPT/Pyruvate + 5μM MNI-137): 0.03079
smFRET Histogram, Mean (FRET 0.38, 15μM Glutamate + 5μM MNI-137): 0.07309
smFRET Histogram, Mean (FRET 0.4, 0μM Glutamate + GPT/Pyruvate + 5μM MNI-137): 0.02474
smFRET Histogram, Mean (FRET 0.4, 15μM Glutamate + 5μM MNI-137): 0.06696
smFRET Histogram, Mean (FRET 0.42, 15μM Glutamate + 5μM MNI-137): 0.05663
smFRET Histogram, Mean (FRET 0.44, 0μM Glutamate + GPT/Pyruvate + 5μM MNI-137): 0.01517
smFRET Histogram, Mean (FRET 0.44, 15μM Glutamate + 5μM MNI-137): 0.0478
smFRET Histogram, Mean (FRET 0.46, 0μM Glutamate + GPT/Pyruvate + 5μM MNI-137): 0.01122
smFRET Histogram, Mean (FRET 0.46, 15μM Glutamate + 5μM MNI-137): 0.03818
smFRET Histogram, Mean (FRET 0.48, 0μM Glutamate + GPT/Pyruvate + 5μM MNI-137): 0.00878
smFRET Histogram, Mean (FRET 0.48, 15μM Glutamate + 5μM MNI-137): 0.02974
smFRET Histogram, Mean (FRET 0.5, 0μM Glutamate + GPT/Pyruvate + 5μM MNI-137): 0.0069
smFRET Histogram, Mean (FRET 0.5, 15μM Glutamate + 5μM MNI-137): 0.02283
smFRET Histogram, Mean (FRET 0.52, 0μM Glutamate + GPT/Pyruvate + 5μM MNI-137): 0.00522
smFRET Histogram, Mean (FRET 0.52, 15μM Glutamate + 5μM MNI-137): 0.01756
smFRET Histogram, Mean (FRET 0.54, 0μM Glutamate + GPT/Pyruvate + 5μM MNI-137): 0.0038
smFRET Histogram, Mean (FRET 0.54, 15μM Glutamate + 5μM MNI-137): 0.01395
smFRET Histogram, Mean (FRET 0.56, 0μM Glutamate + GPT/Pyruvate + 5μM MNI-137): 0.00307
smFRET Histogram, Mean (FRET 0.56, 15μM Glutamate + 5μM MNI-137): 0.01177
smFRET Histogram, Mean (FRET 0.58, 0μM Glutamate + GPT/Pyruvate + 5μM MNI-137): 0.00238
smFRET Histogram, Mean (FRET 0.58, 15μM Glutamate + 5μM MNI-137): 0.0101
smFRET Histogram, Mean (FRET 0.6, 0μM Glutamate + GPT/Pyruvate + 5μM MNI-137): 0.00226
smFRET Histogram, Mean (FRET 0.6, 15μM Glutamate + 5μM MNI-137): 0.0089
smFRET Histogram, Mean (FRET 0.62, 15μM Glutamate + 5μM MNI-137): 0.0083
smFRET Histogram, Mean (FRET 0.64, 0μM Glutamate + GPT/Pyruvate + 5μM MNI-137): 0.00164
smFRET Histogram, Mean (FRET 0.64, 15μM Glutamate + 5μM MNI-137): 0.00824
smFRET Histogram, Mean (FRET 0.66, 0μM Glutamate + GPT/Pyruvate + 5μM MNI-137): 0.00119
smFRET Histogram, Mean (FRET 0.66, 15μM Glutamate + 5μM MNI-137): 0.00778
smFRET Histogram, Mean (FRET 0.68, 0μM Glutamate + GPT/Pyruvate + 5μM MNI-137): 0.00129
smFRET Histogram, Mean (FRET 0.68, 15μM Glutamate + 5μM MNI-137): 0.00775
smFRET Histogram, Mean (FRET 0.7, 0μM Glutamate + GPT/Pyruvate + 5μM MNI-137): 0.00106
smFRET Histogram, Mean (FRET 0.7, 15μM Glutamate + 5μM MNI-137): 0.00734
smFRET Histogram, Mean (FRET 0.72, 0μM Glutamate + GPT/Pyruvate + 5μM MNI-137): 9.06E-04
smFRET Histogram, Mean (FRET 0.72, 15μM Glutamate + 5μM MNI-137): 0.00691
smFRET Histogram, Mean (FRET 0.74, 0μM Glutamate + GPT/Pyruvate + 5μM MNI-137): 8.03E-04
smFRET Histogram, Mean (FRET 0.74, 15μM Glutamate + 5μM MNI-137): 0.00635
smFRET Histogram, Mean (FRET 0.76, 0μM Glutamate + GPT/Pyruvate + 5μM MNI-137): 9.58E-04
smFRET Histogram, Mean (FRET 0.76, 15μM Glutamate + 5μM MNI-137): 0.00599
smFRET Histogram, Mean (FRET 0.78, 0μM Glutamate + GPT/Pyruvate + 5μM MNI-137): 9.38E-04
smFRET Histogram, Mean (FRET 0.78, 15μM Glutamate + 5μM MNI-137): 0.00583
smFRET Histogram, Mean (FRET 0.8, 0μM Glutamate + GPT/Pyruvate + 5μM MNI-137): 8.49E-04
smFRET Histogram, Mean (FRET 0.8, 15μM Glutamate + 5μM MNI-137): 0.00559
smFRET Histogram, Mean (FRET 0.82, 0μM Glutamate + GPT/Pyruvate + 5μM MNI-137): 9.70E-04
smFRET Histogram, Mean (FRET 0.82, 15μM Glutamate + 5μM MNI-137): 0.00496
smFRET Histogram, Mean (FRET 0.84, 0μM Glutamate + GPT/Pyruvate + 5μM MNI-137): 0.00112
smFRET Histogram, Mean (FRET 0.84, 15μM Glutamate + 5μM MNI-137): 0.00504
smFRET Histogram, Mean (FRET 0.86, 0μM Glutamate + GPT/Pyruvate + 5μM MNI-137): 0.00114
smFRET Histogram, Mean (FRET 0.86, 15μM Glutamate + 5μM MNI-137): 0.00467
smFRET Histogram, Mean (FRET 0.88, 0μM Glutamate + GPT/Pyruvate + 5μM MNI-137): 0.0011
smFRET Histogram, Mean (FRET 0.9, 0μM Glutamate + GPT/Pyruvate + 5μM MNI-137): 0.0013
smFRET Histogram, Mean (FRET 0.9, 15μM Glutamate + 5μM MNI-137): 0.00455
smFRET Histogram, Mean (FRET 0.92, 0μM Glutamate + GPT/Pyruvate + 5μM MNI-137): 0.0011
smFRET Histogram, Mean (FRET 0.92, 15μM Glutamate + 5μM MNI-137): 0.00382
smFRET Histogram, Mean (FRET 0.94, 0μM Glutamate + GPT/Pyruvate + 5μM MNI-137): 8.72E-04
smFRET Histogram, Mean (FRET 0.96, 0μM Glutamate + GPT/Pyruvate + 5μM MNI-137): 0.001
smFRET Histogram, Mean (FRET 0.98, 0μM Glutamate + GPT/Pyruvate + 5μM MNI-137): 6.96E-04
smFRET Histogram, Mean (FRET 1, 0μM Glutamate + GPT/Pyruvate + 5μM MNI-137): 4.51E-04
smFRET Histogram, Mean (FRET 1.02, 0μM Glutamate + GPT/Pyruvate + 5μM MNI-137): 2.62E-04
smFRET Histogram, Mean (FRET 1.04, 0μM Glutamate + GPT/Pyruvate + 5μM MNI-137): 1.50E-04
smFRET Histogram, Mean (FRET 1.06, 0μM Glutamate + GPT/Pyruvate + 5μM MNI-137): 2.86E-05
smFRET Histogram, Mean (FRET 1.08, 0μM Glutamate + GPT/Pyruvate + 5μM MNI-137): 2.33E-05
smFRET Histogram, Mean (FRET 1.1, 0μM Glutamate + GPT/Pyruvate + 5μM MNI-137): 8.10E-05
smFRET Histogram, Mean (FRET 1.12, 0μM Glutamate + GPT/Pyruvate + 5μM MNI-137): 1.94E-05
smFRET Histogram, Mean (FRET 1.14, 0μM Glutamate + GPT/Pyruvate + 5μM MNI-137): 1.94E-05
smFRET Histogram, Mean (FRET 1.16, 0μM Glutamate + GPT/Pyruvate + 5μM MNI-137): 9.97E-06
smFRET Histogram, Mean (FRET 1.18, 0μM Glutamate + GPT/Pyruvate + 5μM MNI-137): 0
smFRET Histogram, Mean (FRET 1.2, 0μM Glutamate + GPT/Pyruvate + 5μM MNI-137): 0
Mean occupancy, state 1 (inactive, FRET 0.24) (0 μM glutamate): 0.7486
Mean occupancy, state 2 (intermediate 1, FRET 0.38) (0 μM glutamate): 0.222
Mean occupancy, state 3 (intermediate 2, FRET 0.70) (0 μM glutamate): 0.02038
Mean occupancy, state 4 (active, FRET 0.87) (0 μM glutamate): 0.00903
Mean occupancy, state 1 (inactive, FRET 0.24) (15 μM glutamate): 0.1039
Mean occupancy, state 2 (intermediate 1, FRET 0.38) (15 μM glutamate): 0.7494
Mean occupancy, state 3 (intermediate 2, FRET 0.70) (15 μM glutamate): 0.1272
Mean occupancy, state 4 (active, FRET 0.87) (15 μM glutamate): 0.01952
Mean occupancy, state 1 (inactive, FRET 0.24) (1000 μM glutamate): 0.00207
Mean occupancy, state 2 (intermediate 1, FRET 0.38) (1000 μM glutamate): 0.5597
Mean occupancy, state 3 (intermediate 2, FRET 0.70) (1000 μM glutamate): 0.331
Mean occupancy, state 4 (active, FRET 0.87) (1000 μM glutamate): 0.1072
Substance: MNI-137

From publication PMC9299836 (eLife, 2022)
